Our source for the IC50 values is patent US10730858B2, “Lactam, cyclic urea and carbamate, and triazolone derivatives as potent and selective rock inhibitors” (BRISTOL-MYERS SQUIBB COMPANY, priority 2016, dated 2020).

The target in this experiment is ROCK2 (Homo sapiens, UniProt O75116). Description: ROCK2 assay (Caliper LABCHIP peptide phosphorylation, kinase inhibition). The format is biochemical. The following applies: 5 μM ATP, 1.5 μM peptide substrate. The procedure: The effectiveness of compounds of the present invention as ROCK inhibitors can be determined in a 30 μL assay containing 20 mM HEPES, pH 7.5, 20 mM MgCl2, 0.015% Brij-35, 4 mM DTT, 5 μM ATP and 1.5 μM peptide substrate (FITC-AHA-AKRRRLSSLRA-OH) (SEQ ID NO. 1). Compounds were dissolved in DMSO so that the final concentration of DMSO was <2%, and the reaction was initiated with Rho kinase variants. After incubation, the reaction was terminated by the addition of EDTA and the phosphorylated and non-phosphorylated peptides separated using a LABCHIP® 3000 Reader (Caliper Life Sciences). […] Compounds were tested in dose-response format, and the inhibition of kinase activity was calculated at each concentration of compound. The inhibition data were fit using a curve-fitting program to determine the IC50; i.e., the concentration of compound required to inhibit 50% of kinase activity.
ROCK2, sequence (O75116 whole entry, species assumed): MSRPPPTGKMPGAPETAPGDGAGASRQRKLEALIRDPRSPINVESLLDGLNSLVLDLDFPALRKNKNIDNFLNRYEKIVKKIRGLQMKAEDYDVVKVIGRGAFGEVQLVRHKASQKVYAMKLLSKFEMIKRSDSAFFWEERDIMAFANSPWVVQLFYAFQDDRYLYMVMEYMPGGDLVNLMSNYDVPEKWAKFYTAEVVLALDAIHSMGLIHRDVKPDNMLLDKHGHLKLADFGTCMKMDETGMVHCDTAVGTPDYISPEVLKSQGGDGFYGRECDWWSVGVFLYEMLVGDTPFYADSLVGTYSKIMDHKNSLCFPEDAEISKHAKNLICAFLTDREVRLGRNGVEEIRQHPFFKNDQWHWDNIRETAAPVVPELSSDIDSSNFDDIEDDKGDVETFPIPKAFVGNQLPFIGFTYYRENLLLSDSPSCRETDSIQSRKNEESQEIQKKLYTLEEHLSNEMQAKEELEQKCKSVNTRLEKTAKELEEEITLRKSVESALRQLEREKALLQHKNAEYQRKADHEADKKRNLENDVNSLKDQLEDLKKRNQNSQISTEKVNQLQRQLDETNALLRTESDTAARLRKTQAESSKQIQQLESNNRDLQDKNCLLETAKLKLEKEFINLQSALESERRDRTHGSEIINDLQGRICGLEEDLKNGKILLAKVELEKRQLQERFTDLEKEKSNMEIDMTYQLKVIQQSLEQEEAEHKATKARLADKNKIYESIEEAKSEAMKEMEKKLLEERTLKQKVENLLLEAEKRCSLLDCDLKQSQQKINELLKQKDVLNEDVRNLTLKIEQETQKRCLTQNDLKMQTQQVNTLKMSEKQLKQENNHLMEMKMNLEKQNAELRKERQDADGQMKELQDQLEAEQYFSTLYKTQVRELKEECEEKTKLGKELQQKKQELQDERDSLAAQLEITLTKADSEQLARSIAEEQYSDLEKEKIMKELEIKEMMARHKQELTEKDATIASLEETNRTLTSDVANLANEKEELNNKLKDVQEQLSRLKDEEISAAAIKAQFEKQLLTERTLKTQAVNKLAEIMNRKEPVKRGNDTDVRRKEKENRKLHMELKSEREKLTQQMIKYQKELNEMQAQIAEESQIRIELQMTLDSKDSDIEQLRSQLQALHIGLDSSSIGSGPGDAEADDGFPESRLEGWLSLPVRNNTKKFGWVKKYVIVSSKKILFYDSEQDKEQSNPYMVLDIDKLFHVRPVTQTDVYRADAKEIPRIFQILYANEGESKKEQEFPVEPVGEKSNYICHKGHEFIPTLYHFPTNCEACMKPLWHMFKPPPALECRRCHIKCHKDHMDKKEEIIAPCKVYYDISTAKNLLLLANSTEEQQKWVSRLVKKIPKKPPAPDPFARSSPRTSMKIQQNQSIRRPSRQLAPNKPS
Representative Examples were tested in the ROCK2 assay described above and found having ROCK2 inhibitory activity. The ranges of the ROCK2 IC50 values are as follows: ROCK2 IC50: ++++ (<10 nM) +++ (10-100 nM) ++ (100-500 nM) + (500-2000 nM)

Molecules are shown by their SMILES.

As a reminder, the IC50 is the concentration at which inhibition is half-maximal. The low end stands for higher potency, the high end for lower potency. As to `O=C1C(Nc2cccc(OC(F)F)c2)CCN1c1ccc(-c2n[nH]c(=O)c3ccccc23)cc1` (racemic) [Example 30, 4-[4-(3-{[3-(difluoromethoxy)phenyl]amino}-2-oxopyrrolidin-1-yl)phenyl]-1,2-dihydrophthalazin-1-one], the half-maximal inhibitory concentration (IC50) was under 10 nM.
Under `O=C1C(Nc2cccc(OC(F)F)c2)CCN1c1ccc(-c2c[nH]c(=O)c3ccccc23)cc1` (racemic) [Example 58, 4-[4-(3-{[3-(difluoromethoxy)phenyl]amino}-2-oxopyrrolidin-1-yl)phenyl]-1,2-dihydroisoquinolin-1-one] stands under 10 nM; under `O=C1COc2cc(NC3CCN(c4ccc(-c5n[nH]c(=O)c6ccccc56)cc4)C3=O)ccc2N1` (racemic) [Example 62, 7-({2-oxo-1-[4-(4-oxo-3,4-dihydrophthalazin-1-yl)phenyl]pyrrolidin-3-yl}amino)-3,4-dihydro-2H-1,4-benzoxazin-3-one], under 10 nM; under `Cc1nc2ccc(NC3CCN(c4ccc(-c5n[nH]c(=O)c6ccccc56)cc4)C3=O)cc2s1` (racemic) [Example 66, 4-(4-{3-[(2-methyl-1,3-benzothiazol-6-yl)amino]-2-oxopyrrolidin-1-yl}phenyl)-1,2-dihydrophthalazin-1-one], under 10 nM.
Under `O=C1C(Oc2cccc(OC(F)(F)F)c2)CCN1c1ccc(-c2n[nH]c(=O)c3ccccc23)cc1` (racemic) [Example 73, 4-(4-{2-oxo-3-[3-(trifluoromethoxy)phenoxy]pyrrolidin-1-yl}phenyl)-1,2-dihydrophthalazin-1-one] stands under 10 nM; under `O=C1C(Nc2cccc(OC(F)F)c2)CCN1c1ccc(-c2n[nH]c(=O)c3ccccc23)cc1` (single isomer, unassigned) [Example 55, 4-[4-(3-{[3-(difluoromethoxy)phenyl]amino}-2-oxopyrrolidin-1-yl)phenyl]-1,2-dihydrophthalazin-1-one], 10 to 100 nM.
Under `O=C1C(Nc2cccc(OC(F)F)c2)CCN1c1ccc(-c2n[nH]c(=O)c3ccccc23)cc1` (single isomer, unassigned) [Example 56, 4-[4-(3-{[3-(difluoromethoxy)phenyl]amino}-2-oxopyrrolidin-1-yl)phenyl]-1,2-dihydrophthalazin-1-one] stands under 10 nM.
Molecule `O=C1C(Nc2ccc3c(c2)OCCCO3)CCN1c1ccc(-c2n[nH]c(=O)c3ccccc23)cc1` (single isomer, unassigned) [Example 76, 4-(4-{3-[(3,4-dihydro-2H-1,5-benzodioxepin-7-yl)amino]-2-oxopyrrolidin-1-yl}phenyl)-1,2-dihydrophthalazin-1-one] returned an IC50 of 10 to 100 nM.
Under `O=C1C(Nc2ccc3c(c2)OCCCO3)CCN1c1ccc(-c2n[nH]c(=O)c3ccccc23)cc1` (single isomer, unassigned) [Example 77, 4-(4-{3-[(3,4-dihydro-2H-1,5-benzodioxepin-7-yl)amino]-2-oxopyrrolidin-1-yl}phenyl)-1,2-dihydrophthalazin-1-one] stands 10 to 100 nM; under `O=C1C(Nc2cccc(OC(F)F)c2)CCN1c1ccc(-c2c[nH]c(=O)c3ccccc23)cc1` (single isomer, unassigned) [Example 78, 4-[4-(3-{[3-(difluoromethoxy)phenyl]amino}-2-oxopyrrolidin-1-yl)phenyl]-1,2-dihydroisoquinolin-1-one], 10 to 100 nM; under `O=C1C(Nc2cccc(OC(F)F)c2)CCN1c1ccc(-c2c[nH]c(=O)c3ccccc23)cc1` (single isomer, unassigned) [Example 79, 4-[4-(3-{[3-(difluoromethoxy)phenyl]amino}-2-oxopyrrolidin-1-yl)phenyl]-1,2-dihydroisoquinolin-1-one], under 10 nM.
For `Cc1nc2ccc(NC3CCN(c4ccc(-c5n[nH]c(=O)c6ccccc56)cc4)C3=O)cc2s1` (single isomer, unassigned) [Example 80, 4-(4-{3-[(2-methyl-1,3-benzothiazol-6-yl)amino]-2-oxopyrrolidin-1-yl}phenyl)-1,2-dihydrophthalazin-1-one] the value was under 10 nM; for `Cc1nc2ccc(NC3CCN(c4ccc(-c5n[nH]c(=O)c6ccccc56)cc4)C3=O)cc2s1` (single isomer, unassigned) [Example 81, 4-(4-{3-[(2-methyl-1,3-benzothiazol-6-yl)amino]-2-oxopyrrolidin-1-yl}phenyl)-1,2-dihydrophthalazin-1-one], 10 to 100 nM.
Under `O=C1COc2cc(NC3CCN(c4ccc(-c5n[nH]c(=O)c6ccccc56)cc4)C3=O)ccc2N1` (single isomer, unassigned) [Example 82, 7-({2-oxo-1-[4-(4-oxo-3,4-dihydrophthalazin-1-yl)phenyl]pyrrolidin-3-yl}amino)-3,4-dihydro-2H-1,4-benzoxazin-3-one] stands under 10 nM; under `O=C1COc2cc(NC3CCN(c4ccc(-c5n[nH]c(=O)c6ccccc56)cc4)C3=O)ccc2N1` (single isomer, unassigned) [Example 83, 7-({2-oxo-1-[4-(4-oxo-3,4-dihydrophthalazin-1-yl)phenyl]pyrrolidin-3-yl}amino)-3,4-dihydro-2H-1,4-benzoxazin-3-one], 10 to 100 nM.
On to `O=C1C(Oc2cccc(OC(F)(F)F)c2)CCN1c1ccc(-c2n[nH]c(=O)c3ccccc23)cc1` (single isomer, unassigned) [Example 84, 4-(4-{2-oxo-3-[3-(trifluoromethoxy)phenoxy]pyrrolidin-1-yl}phenyl)-1,2-dihydrophthalazin-1-one], for which the IC50 is under 10 nM.
`O=C1C(Oc2cccc(OC(F)(F)F)c2)CCN1c1ccc(-c2n[nH]c(=O)c3ccccc23)cc1` (single isomer, unassigned) [Example 85, 4-(4-{2-oxo-3-[3-(trifluoromethoxy)phenoxy]pyrrolidin-1-yl}phenyl)-1,2-dihydrophthalazin-1-one] returned an IC50 of under 10 nM.
Under `O=C1C(c2ccccc2)CCN1c1ccc(-c2n[nH]c(=O)c3ccccc23)cc1` (stereo not drawn) [Example 1, 4-[4-(2-oxo-3-phenylpyrrolidin-1-yl)phenyl]-1,2-dihydrophthalazin-1-one] stands 100 to 500 nM; under `O=C1N(c2ccccc2)CCN1c1ccc(-c2n[nH]c(=O)c3ccccc23)cc1` [Example 2, 4-[4-(2-oxo-3-phenylimidazolidin-1-yl)phenyl]-1,2-dihydrophthalazin-1-one], under 10 nM.
For `O=C1C(C(=O)N2CCc3ccccc32)CCN1c1ccc(-c2n[nH]c(=O)c3ccccc23)cc1` (stereo not drawn) [Example 3, 4-{4-[3-(2,3-dihydro-1H-indole-1-carbonyl)-2-oxopyrrolidin-1-yl]phenyl}-1,2-dihydrophthalazin-1-one] the value was 500 to 2000 nM.
For `O=C1CC(c2ccccc2)CN1c1ccc(-c2n[nH]c(=O)c3ccccc23)cc1` (stereo not drawn) [Example 4, 4-[4-(2-oxo-4-phenylpyrrolidin-1-yl)phenyl]-1,2-dihydrophthalazin-1-one] the value was 100 to 500 nM.
Turning to `O=C(C1CCN(c2ccc(-c3n[nH]c(=O)c4ccccc34)cc2)C1=O)N1Cc2ccccc2C1` (stereo not drawn) [Example 5, 4{-4-[3-(2,3-dihydro-1H-isoindole-2-carbonyl)-2-oxopyrrolidin-1-yl]phenyl}-1,2-dihydrophthalazin-1-one], the half-inhibitory concentration (IC50) fell in the range of 500 to 2000 nM.
Under `O=C(Nc1ccccc1)C1CCN(c2ccc(-c3n[nH]c(=O)c4ccccc34)cc2)C1=O` (stereo not drawn) [Example 6, 2-oxo-1-[4-(4-oxo-3,4-dihydrophthalazin-1-yl)phenyl]-N-phenylpyrrolidine-3-carboxamide] stands 100 to 500 nM; under `O=C(NCc1ccccc1)C1CCN(c2ccc(-c3n[nH]c(=O)c4ccccc34)cc2)C1=O` (stereo not drawn) [Example 7, N-benzyl-2-oxo-1-[4-(4-oxo-3,4-dihydrophthalazin-1-yl)phenyl]pyrrolidine-3-carboxamide], 100 to 500 nM.
As for `O=C1C(c2ccc(-c3n[nH]c(=O)c4ccccc34)cc2)CCN1Cc1ccccc1` (stereo not drawn) [Example 8, 4-[4-(1-benzyl-2-oxopyrrolidin-3-yl)phenyl]-1,2-dihydrophthalazin-1-one], the IC50 is 500 to 2000 nM.
`O=C1C(c2ccc(-c3n[nH]c(=O)c4ccccc34)cc2)CCN1c1ccccc1` (stereo not drawn) [Example 9, 4-[4-(2-oxo-1-phenylpyrrolidin-3-yl)phenyl]-1,2-dihydrophthalazin-1-one] gave a half-maximal inhibitory concentration (IC50) of 100 to 500 nM.
As to `O=C1N(Cc2ccccc2)CCN1c1ccc(-c2n[nH]c(=O)c3ccccc23)cc1` [Example 10, 4-[4-(3-benzyl-2-oxoimidazolidin-1-yl)phenyl]-1,2-dihydrophthalazin-1-one], the half-inhibitory concentration (IC50) was in the range of 10 to 100 nM.
On to `O=C1N(c2ccc(-c3n[nH]c(=O)c4ccccc34)cc2)CCN1c1cccnc1` [Example 11, 4-{4-[2-oxo-3-(pyridin-3-yl)imidazolidin-1-yl]phenyl}-1,2-dihydrophthalazin-1-one], for which the half-inhibitory concentration (IC50) lay within 10 to 100 nM.
With `O=C1N(c2ccc(-c3n[nH]c(=O)c4ccccc34)cc2)CCN1c1ccccn1` [Example 12, 4-{4-[2-oxo-3-(pyridin-2-yl)imidazolidin-1-yl]phenyl}-1,2-dihydrophthalazin-1-one], the 50% inhibitory concentration (IC50) was 10 to 100 nM.
On to `O=C1OC(Cc2ccccc2)CN1c1ccc(-c2n[nH]c(=O)c3ccccc23)cc1` (stereo not drawn) [Example 13, 4-[4-(5-benzyl-2-oxo-1,3-oxazolidin-3-yl)phenyl]-1,2-dihydrophthalazin-1-one], for which the IC50 was in the range of 10 to 100 nM.
